In ChEMBL document CHEMBL4138236, “Trisubstituted barbiturates and thiobarbiturates: Synthesis and biological evaluation as xanthine oxidase inhibitors, antioxidants, antibacterial and anti-proliferative agents” (Eur J Med Chem, 2018):
pIC50: −log10 of the molar value. ≈ marks a conversion by molar mass, not a printed value.

Tests used:
[1] = Antioxidant activity assessed as DPPH radical scavenging activity at 30 uM after 20 mins by spectrophotometric method relative to control; assay type: functional
[2] = Antioxidant activity assessed as DPPH radical scavenging activity at 30 uM after 60 mins by spectrophotometric method relative to control; assay type: functional
MCF7 = test: Antiproliferative activity against human MCF7 cells at 30 uM after 72 hrs by MTT assay relative to control; assay type: functional
NHDF [3] = test: Antiproliferative activity against NHDF at 30 uM after 72 hrs by MTT assay relative to control; assay type: cell-based; settings: human
Bacillus cereus = test: Antibacterial activity against Bacillus cereus ATCC 1178 after 24 hrs by broth microdilution method; assay type: functional; settings: ATCC 1178, 24 h
Staphylococcus aureus = test: Antibacterial activity against Staphylococcus aureus ATCC 25923 after 24 hrs by broth microdilution method; assay type: functional; settings: ATCC 25923, 24 h
Escherichia coli = test: Antibacterial activity against Escherichia coli ATCC 25922 after 24 hrs by broth microdilution method; assay type: functional; settings: ATCC 25922, 24 h
Klebsiella pneumoniae = test: Antibacterial activity against Klebsiella pneumoniae ATCC 13883 after 24 hrs by broth microdilution method; assay type: functional; settings: ATCC 13883, 24 h
Pseudomonas aeruginosa = test: Antibacterial activity against Pseudomonas aeruginosa ATCC 27853 after 24 hrs by broth microdilution method; assay type: functional; settings: ATCC 27853, 24 h
Salmonella typhimurium = test: Antibacterial activity against Salmonella typhimurium ATCC 13311 after 24 hrs by broth microdilution method; assay type: functional, Salmonella enterica subsp. enterica serovar Typhimurium; settings: Salmonella enterica, ATCC 13311, 24 h
Acinetobacter baumannii = test: Antibacterial activity against Acinetobacter baumannii LMG 1025 after 24 hrs by broth microdilution method; assay type: functional; settings: LMG 1025, 24 h
[4] = Antioxidant activity assessed as DPPH radical scavenging activity after 20 mins by spectrophotometric method; assay type: functional
[5] = Antioxidant activity assessed as DPPH radical scavenging activity after 60 mins by spectrophotometric method; assay type: functional
NHDF [6] = test: Antiproliferative activity against NHDF after 72 hrs by MTT assay; assay type: cell-based; settings: Homo sapiens

Q: With `O=C1NC(=O)C(=CNc2ccccc2C(=O)O)C(=O)N1` as the compound, how does the Activity [1] read?
A: 1.75%

Q: And the Activity [2]?
A: 1.98%

Q: What about the Activity (MCF7) of the same compound?
A: 54.9%

Q: And the Activity (NHDF [3])?
A: 84.62%

Q: And the MIC (Bacillus cereus)?
A: > 200 µM

Q: And the MIC (Staphylococcus aureus)?
A: > 200 µM

Q: What about the MIC (Escherichia coli) of the same compound?
A: > 200 µM

Q: And the MIC (Klebsiella pneumoniae)?
A: > 200 µM

Q: What about the MIC (Pseudomonas aeruginosa) of the same compound?
A: > 200 µM

Q: And the MIC (Salmonella typhimurium)?
A: > 200 µM

Q: What about the MIC (Acinetobacter baumannii) of the same compound?
A: > 200 µM

Q: With `O=C1NC(=O)C(=Cc2ccccc2[N+](=O)[O-])C(=O)N1` as the compound, how does the Activity [1] read?
A: -0.9%

Q: What about the Activity [2] of the same compound?
A: -0.78%

Q: And the Activity (MCF7)?
A: 58.88%

Q: What about the Activity (NHDF [3]) of the same compound?
A: 72.88%

Q: And the MIC (Bacillus cereus)?
A: > 200 µM

Q: What about the MIC (Staphylococcus aureus) of the same compound?
A: > 200 µM

Q: What about the MIC (Escherichia coli) of the same compound?
A: > 200 µM

Q: And the MIC (Klebsiella pneumoniae)?
A: > 200 µM

Q: And the MIC (Pseudomonas aeruginosa)?
A: > 200 µM

Q: What about the MIC (Salmonella typhimurium) of the same compound?
A: > 200 µM

Q: And the MIC (Acinetobacter baumannii)?
A: > 200 µM

Q: For `CN1C(=O)C(=CNc2ccccc2C(=O)O)C(=O)N(C)C1=O`, which Activity [1] is on record?
A: 3.37%

Q: And the Activity [2]?
A: 1.98%

Q: And the Activity (MCF7)?
A: 50.34%

Q: What about the Activity (NHDF [3]) of the same compound?
A: 71.19%

Q: What about the MIC (Bacillus cereus) of the same compound?
A: > 200 µM

Q: What about the MIC (Staphylococcus aureus) of the same compound?
A: > 200 µM

Q: What about the MIC (Escherichia coli) of the same compound?
A: > 200 µM

Q: What about the MIC (Klebsiella pneumoniae) of the same compound?
A: > 200 µM

Q: What about the MIC (Pseudomonas aeruginosa) of the same compound?
A: > 200 µM

Q: And the MIC (Salmonella typhimurium)?
A: > 200 µM

Q: And the MIC (Acinetobacter baumannii)?
A: > 200 µM

Q: Which Activity [1] does the source give for `CC(NNc1ccccc1)=C1C(=O)N(C)C(=O)N(C)C1=O` here?
A: 77.1%

Q: What about the Activity [2] of the same compound?
A: 76.7%

Q: And the pIC50 [4]?
A: 4.65

Q: What about the pIC50 [5] of the same compound?
A: 4.73

Q: And the Activity (MCF7)?
A: 57.38%

Q: And the Activity (NHDF [3])?
A: 65.56%

Q: And the pIC50 (NHDF [6])?
A: 4.09

Q: And the MIC (Bacillus cereus)?
A: > 200 µM

Q: What about the MIC (Staphylococcus aureus) of the same compound?
A: > 200 µM

Q: What about the MIC (Escherichia coli) of the same compound?
A: > 200 µM

Q: What about the MIC (Klebsiella pneumoniae) of the same compound?
A: > 200 µM

Q: And the MIC (Pseudomonas aeruginosa)?
A: > 200 µM

Q: And the MIC (Salmonella typhimurium)?
A: > 200 µM

Q: What about the MIC (Acinetobacter baumannii) of the same compound?
A: 25 µM (≈ 7.21 µg/mL)

Q: Which results are given for `CC(NNc1ccc([N+](=O)[O-])cc1)=C1C(=O)N(C)C(=O)N(C)C1=O`?
A: Activity [1]: 71.2%; Activity [2]: 76%; pIC50 [4]: 4.62; pIC50 [5]: 4.62; Activity (MCF7): 76.99%; Activity (NHDF [3]): 77.63%; MIC (Bacillus cereus): > 200 µM; MIC (Staphylococcus aureus): > 200 µM; MIC (Escherichia coli): > 200 µM; MIC (Klebsiella pneumoniae): > 200 µM; MIC (Pseudomonas aeruginosa): > 200 µM; MIC (Salmonella typhimurium): > 200 µM; MIC (Acinetobacter baumannii): 12.5 µM (≈ 4.17 µg/mL)

Q: What does the source list for `CC(NN)=C1C(=O)NC(=O)NC1=O`?
A: Activity [1]: 11.6%; Activity [2]: 25.4%; Activity (MCF7): 98.27%; Activity (NHDF [3]): 82.68%; MIC (Bacillus cereus): > 200 µM; MIC (Staphylococcus aureus): > 200 µM; MIC (Escherichia coli): > 200 µM; MIC (Klebsiella pneumoniae): > 200 µM; MIC (Pseudomonas aeruginosa): > 200 µM; MIC (Salmonella typhimurium): > 200 µM; MIC (Acinetobacter baumannii): > 200 µM

Q: What does the source list for `NC(S)=NC=C1C(=O)NC(=O)NC1=O`?
A: Activity [1]: 6.73%; Activity [2]: 16.6%; Activity (MCF7): 71.09%; Activity (NHDF [3]): 78.05%; MIC (Bacillus cereus): > 200 µM; MIC (Staphylococcus aureus): > 200 µM; MIC (Escherichia coli): > 200 µM; MIC (Klebsiella pneumoniae): > 200 µM; MIC (Pseudomonas aeruginosa): > 200 µM; MIC (Salmonella typhimurium): > 200 µM; MIC (Acinetobacter baumannii): > 200 µM

Q: For `Nc1ccccc1NC=C1C(=O)NC(=S)NC1=O`, which Activity [1] is on record?
A: 6.1%

Q: And the Activity [2]?
A: 17.3%

Q: And the Activity (MCF7)?
A: 64.55%

Q: And the Activity (NHDF [3])?
A: 70.13%

Q: What about the MIC (Bacillus cereus) of the same compound?
A: > 200 µM

Q: And the MIC (Staphylococcus aureus)?
A: > 200 µM

Q: And the MIC (Escherichia coli)?
A: > 200 µM

Q: What about the MIC (Klebsiella pneumoniae) of the same compound?
A: > 200 µM

Q: And the MIC (Pseudomonas aeruginosa)?
A: > 200 µM

Q: And the MIC (Salmonella typhimurium)?
A: > 200 µM

Q: What about the MIC (Acinetobacter baumannii) of the same compound?
A: > 200 µM

Q: Which Activity [1] does the source give for `N#CC(c1ccc(Br)cc1)c1c([O-])[nH]c(=S)[nH]c1=O.[Na+]` (stereo unspecified) here?
A: -9.22%

Q: What about the Activity [2] of the same compound?
A: -8.33%

Q: And the Activity (MCF7)?
A: 90.08%

Q: What about the Activity (NHDF [3]) of the same compound?
A: 89.93%

Q: What about the MIC (Bacillus cereus) of the same compound?
A: > 200 µM

Q: And the MIC (Staphylococcus aureus)?
A: > 200 µM

Q: What about the MIC (Escherichia coli) of the same compound?
A: > 200 µM

Q: What about the MIC (Klebsiella pneumoniae) of the same compound?
A: > 200 µM

Q: What about the MIC (Pseudomonas aeruginosa) of the same compound?
A: > 200 µM

Q: What about the MIC (Salmonella typhimurium) of the same compound?
A: > 200 µM

Q: And the MIC (Acinetobacter baumannii)?
A: > 200 µM

Q: Which results are given for `Cn1c([O-])c(C(C#N)c2ccc(Br)cc2)c(=O)n(C)c1=O.[Na+]` (stereo unspecified)?
A: Activity [1]: 0.45%; Activity [2]: 1.2%; Activity (MCF7): 79.47%; Activity (NHDF [3]): 80.09%; MIC (Bacillus cereus): > 200 µM; MIC (Staphylococcus aureus): > 200 µM; MIC (Escherichia coli): > 200 µM; MIC (Klebsiella pneumoniae): > 200 µM; MIC (Pseudomonas aeruginosa): > 200 µM; MIC (Salmonella typhimurium): > 200 µM; MIC (Acinetobacter baumannii): > 200 µM

Q: For `NC(=S)NC=C1C(=O)NC(=S)NC1=O`, which Activity [1] is on record?
A: 3.37%

Q: And the Activity [2]?
A: 4.18%

Q: And the Activity (MCF7)?
A: 111.15%

Q: What about the Activity (NHDF [3]) of the same compound?
A: 83.56%

Q: And the MIC (Bacillus cereus)?
A: > 200 µM

Q: What about the MIC (Staphylococcus aureus) of the same compound?
A: > 200 µM

Q: And the MIC (Escherichia coli)?
A: > 200 µM

Q: What about the MIC (Klebsiella pneumoniae) of the same compound?
A: > 200 µM

Q: And the MIC (Pseudomonas aeruginosa)?
A: > 200 µM

Q: What about the MIC (Salmonella typhimurium) of the same compound?
A: > 200 µM

Q: What about the MIC (Acinetobacter baumannii) of the same compound?
A: > 200 µM

Q: For `O=C1NC(=S)NC(=O)C1=CNc1cc([N+](=O)[O-])ccc1Cl`, which Activity [1] is on record?
A: -4.31%

Q: And the Activity [2]?
A: -3.68%

Q: What about the Activity (MCF7) of the same compound?
A: 63.7%

Q: And the Activity (NHDF [3])?
A: 70.28%

Q: What about the MIC (Bacillus cereus) of the same compound?
A: > 200 µM

Q: And the MIC (Staphylococcus aureus)?
A: > 200 µM

Q: And the MIC (Escherichia coli)?
A: > 200 µM

Q: What about the MIC (Klebsiella pneumoniae) of the same compound?
A: > 200 µM

Q: What about the MIC (Pseudomonas aeruginosa) of the same compound?
A: > 200 µM

Q: And the MIC (Salmonella typhimurium)?
A: > 200 µM

Q: What about the MIC (Acinetobacter baumannii) of the same compound?
A: > 200 µM

Q: Which results are given for `Cc1c(C)c2c(c(C)c1O)CCC(C)(C(=O)O)O2` (stereo unspecified) [TROLOX]?
A: Activity [1]: 70%; Activity [2]: 70.3%; pIC50 [4]: 4.47; pIC50 [5]: 4.44
